Data published in patent US4504580A, “Antibiotics produced by fermentation of a novel strain of Streptomyces hygroscopicus” (Bristol-Myers Company, priority 1983, dated 1985).
In brackets after ≈: the same amount, converted by molar mass. Entries after “also recorded” stand apart in the source; their conditions may differ.

Legend:
Escherichia coli ML 1630 = assay: MIC, aminoglycoside-resistant E. coli ML 1630; assay type: cell-based; details: Escherichia coli, ML1630; Table 9; inactivating enzyme APH(3')-I; Mueller-Hinton agar; read-out: MIC
Protocol: (§1) The minimum inhibitory concentrations (MIC) of Bu-2659A, B, C, D and E were determined for a variety of gram-positive and gram-negative bacteria by the serial two-fold agar dilution method using the Steer's multi-inoculating apparatus. The inoculum was standardized as a 10^4 dilution of an overnight culture of the test organisms in Heart Infusion Broth (Difco). […] Reference antibiotics utilized in these tests included commercially available neomycin as well as its components, neomycins B and C [as used herein, the term "neomycin" means the commercial product containing neomycins B and C at an approximate ratio of 7:3], paromomycin [the commercial product containing >90% of paromomycin I and <10% of paromomycin II] and ribostamycin.

[1] = tested on: Staphylococcus aureus D136; assay: MIC by serial two-fold agar dilution, S. aureus D136; assay type: cell-based; details: Staphylococcus aureus, D136; Table 7; Mueller-Hinton agar; read-out: MIC
Procedure, shortened: (§2)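 Agar dilution, two-fold series; multipoint (Steer) inoculation; inoculum = 10^4 dilution of overnight culture in Heart Infusion Broth.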

[2] = tested on: Enterobacter cloacae A20364; assay: MIC, aminoglycoside-resistant E. cloacae A20364; assay type: cell-based; details: Enterobacter cloacae, A20364; Table 9; inactivating enzyme APH(3')-I; Mueller-Hinton agar; read-out: MIC
Protocol: as §1

Escherichia coli Juhl = assay: MIC by serial two-fold agar dilution, E. coli Juhl; assay type: cell-based; details: Escherichia coli; Table 7; Mueller-Hinton agar; read-out: MIC
Procedure, shortened: as §2

[3] = tested on: Pseudomonas aeruginosa D15; assay: MIC by serial two-fold agar dilution, P. aeruginosa D15; assay type: cell-based; details: Pseudomonas aeruginosa, D15; Table 7; Mueller-Hinton agar; read-out: MIC
Procedure, shortened: as §2

[4] = tested on: Staphylococcus aureus 209P; assay: MIC by serial two-fold agar dilution, S. aureus 209P; assay type: cell-based; details: Staphylococcus aureus, 209P; Table 7; Mueller-Hinton agar; read-out: MIC
Procedure, shortened: as §2

Escherichia coli NIHJ = assay: MIC by serial two-fold agar dilution, E. coli NIHJ; assay type: cell-based; details: Escherichia coli; Table 7; Mueller-Hinton agar; read-out: MIC
Procedure, shortened: as §2

[5] = tested on: Escherichia coli NR79/W677; assay: MIC, aminoglycoside-resistant E. coli NR79/W677; assay type: cell-based; details: Escherichia coli, NR79/W677
Protocol: as §1

[6] = tested on: Neisseria and Haemophilus species; assay: Antibacterial activity (MIC), overall, Neisseria and Haemophilus, Table 8; assay type: cell-based; details: compared with neomycin
Protocol: as §1

Proteus mirabilis A9906 [7] = assay: Experimental systemic infection in mice, P. mirabilis A9906; assay type: in vivo; details: Proteus mirabilis, A9906, 96 h, im, single treatment, 4 days, read-out: PD50
Protocol: (§3) The in vivo activity of Bu-2659A was assessed by experimental systemic infection in mice. The pathogenic bacteria used in the in vivo tests were E. coli Juhl, K. pneumoniae D-11, P. mirabilis A9906, S. aureus Smith and S. pyogenes A20201. Mice were challenged intraperitoneally with approximately 100×LD50 dose of the pathogens in a 5% suspension of hog gastric mucin (American Laboratories, Omaha, Neb.). A single intramuscular treatment with the antibiotic was given immediately after the bacterial challenge. […] Neomycin was comparatively tested as a reference compound. […] In terms of PD50 value Bu-2659A was about one-half as active as neomycin against infections with S. aureus and S. pyogenes.

Escherichia coli A20732 = assay: MIC, aminoglycoside-resistant E. coli A20732; assay type: cell-based; details: Escherichia coli, A20732; Table 9; inactivating enzyme ANT(2"); Mueller-Hinton agar; read-out: MIC
Protocol: as §1

[8] = tested on: Staphylococcus aureus Smith; assay: Experimental systemic infection in mice, S. aureus Smith; assay type: in vivo; details: Staphylococcus aureus, 96 h, im, single treatment, 4 days, read-out: PD50
Protocol: as §3

[9] = tested on: Micrococcus luteus PCI 1001; assay: MIC by serial two-fold agar dilution, M. luteus PCI 1001; assay type: cell-based; details: Micrococcus luteus, PCI1001; Table 7; Mueller-Hinton agar; read-out: MIC
Procedure, shortened: as §2

[10] = tested on: resistant strains which produce APH(3') or AAC(3); assay: Susceptibility of aminoglycoside resistant organisms (MIC), overall, Table 9; assay type: cell-based; details: several resistant strains which produce APH(3') or AAC(3)
Protocol: as §1

Proteus mirabilis A9906 [11] = assay: MIC by serial two-fold agar dilution, P. mirabilis A9906; assay type: cell-based; details: Proteus mirabilis, A9906; Table 7; Mueller-Hinton agar; read-out: MIC
Procedure, shortened: as §2

[12] = tested on: Klebsiella pneumoniae D11; assay: MIC by serial two-fold agar dilution, K. pneumoniae D11; assay type: cell-based; details: Klebsiella pneumoniae, D11; Table 7; Mueller-Hinton agar; read-out: MIC
Procedure, shortened: as §2

[13] = tested on: Staphylococcus aureus Smith; assay: MIC by serial two-fold agar dilution, S. aureus Smith; assay type: cell-based; details: Staphylococcus aureus; Table 7; Mueller-Hinton agar; read-out: MIC
Procedure, shortened: as §2

[14] = tested on: Bacillus subtilis PCI 219; assay: MIC by serial two-fold agar dilution, B. subtilis PCI 219; assay type: cell-based; details: Bacillus subtilis, PCI219; Table 7; Mueller-Hinton agar; read-out: MIC
Procedure, shortened: as §2

[15] = tested on: Serratia marcescens A20019; assay: MIC by serial two-fold agar dilution, S. marcescens A20019; assay type: cell-based; details: Serratia marcescens, A20019; Table 7; Mueller-Hinton agar; read-out: MIC
Procedure, shortened: as §2

[16] = tested on: Pseudomonas aeruginosa A9930; assay: MIC by serial two-fold agar dilution, P. aeruginosa A9930; assay type: cell-based; details: Pseudomonas aeruginosa, A9930; Table 7; Mueller-Hinton agar; read-out: MIC
Procedure, shortened: as §2

[17] = tested on: Streptococcus pneumoniae Type I; assay: MIC by serial two-fold agar dilution, S. pneumoniae Type I; assay type: cell-based; details: Streptococcus pneumoniae; Table 8; GC medium; read-out: MIC
Protocol: as §1

[18] = tested on: gram-positive and gram-negative bacteria; assay: In vitro antibacterial spectra (MIC), overall comparison, Table 7; assay type: cell-based; details: Table 7 organisms
Protocol: as §1

Mycobacterium phlei = assay: MIC by serial two-fold agar dilution, M. phlei; assay type: cell-based; details: Mycolicibacterium phlei; Table 8; No. 1001 medium; read-out: MIC
Protocol: as §1

Proteus morganii A9553 = assay: MIC by serial two-fold agar dilution, P. morganii A9553; assay type: cell-based; details: Morganella morganii, A9553; Table 7; Mueller-Hinton agar; read-out: MIC
Procedure, shortened: as §2

Proteus rettgeri A15167 = assay: MIC by serial two-fold agar dilution, P. rettgeri A15167; assay type: cell-based; details: Providencia rettgeri, A15167; Table 7; Mueller-Hinton agar; read-out: MIC
Procedure, shortened: as §2

[19] = tested on: Streptococcus pyogenes A20201; assay: MIC by serial two-fold agar dilution, S. pyogenes A20201; assay type: cell-based; details: Streptococcus pyogenes, A20201; Table 8; GC medium; read-out: MIC
Protocol: as §1

Escherichia coli A20107 = assay: MIC, aminoglycoside-resistant E. coli A20107; assay type: cell-based; details: Escherichia coli, A20107; Table 9; inactivating enzyme APH(3')-II; Mueller-Hinton agar; read-out: MIC
Protocol: as §1

[20] = tested on: species of Streptococcus and Mycobacterium; assay: Antibacterial activity (MIC), overall, Streptococcus and Mycobacterium, Table 8; assay type: cell-based
Protocol: as §1

[21] = tested on: Haemophilus influenzae A9729; assay: MIC by serial two-fold agar dilution, H. influenzae A9729; assay type: cell-based; details: Haemophilus influenzae, A9729; Table 8; GC medium; read-out: MIC
Protocol: as §1

Question: For `NC[C@@H]1O[C@H](O[C@H]2[C@@H](O)[C@H](O[C@@H]3[C@@H](O)[C@H](O)C[C@H](N)[C@H]3O[C@H]3O[C@H](CN)[C@@H](O)[C@H](O)[C@H]3N)O[C@@H]2CO)[C@H](N)[C@@H](O)[C@@H]1O` [Bu-2659A, 1-deamino-1-hydroxyneomycin B], which MIC (Escherichia coli ML 1630) is on record?
Answer: The MIC was > 100 µg/mL.

Question: What about the MIC [1] of the same compound?
Answer: Its MIC is 0.8 µg/mL (≈ 1.3 µM).

Question: What about the MIC [2] of the same compound?
Answer: Its MIC is 50 µg/mL (≈ 81.2 µM).

Question: And the MIC (Escherichia coli Juhl)?
Answer: The MIC was 3.1 µg/mL (≈ 5.04 µM).

Question: And the MIC [3]?
Answer: Its MIC is 3.1 µg/mL (≈ 5.04 µM).

Question: And the MIC [4]?
Answer: The MIC was 0.8 µg/mL (≈ 1.3 µM).

Question: What about the MIC (Escherichia coli NIHJ) of the same compound?
Answer: Its MIC is 1.6 µg/mL (≈ 2.6 µM).

Question: And the MIC [5]?
Answer: Its MIC is 50 µg/mL (≈ 81.2 µM).

Question: And the “activity against Neisseria and Haemophilus, in words” value [6]?
Answer: The value was “more active than neomycin”.

Question: And the ED50 (Proteus mirabilis A9906 [7])?
Answer: Its ED50 is 2.5 mg/kg.

Question: What about the MIC (Escherichia coli A20732) of the same compound?
Answer: The MIC was 0.8 µg/mL (≈ 1.3 µM).

Question: And the ED50 [8]?
Answer: Its ED50 is 0.63 mg/kg.

Question: What about the MIC [9] of the same compound?
Answer: Its MIC is 3.1 µg/mL (≈ 5.04 µM).

Question: What about the “activity against aminoglycoside-resistant strains, in words” value [10] of the same compound?
Answer: Its value is “more active than neomycin, paromomycin and ribostamycin”.

Question: What about the MIC (Proteus mirabilis A9906 [11]) of the same compound?
Answer: Its MIC is 0.8 µg/mL (≈ 1.3 µM).

Question: And the MIC [12]?
Answer: The MIC was 0.2 µg/mL (≈ 0.325 µM).

Question: And the MIC [13]?
Answer: Its MIC is 1.6 µg/mL (≈ 2.6 µM).

Question: What about the MIC [14] of the same compound?
Answer: Its MIC is 0.1 µg/mL (≈ 0.162 µM).

Question: What about the MIC [15] of the same compound?
Answer: The MIC was 3.1 µg/mL (≈ 5.04 µM).

Question: And the MIC [16]?
Answer: The MIC was 1.6 µg/mL (≈ 2.6 µM).

Question: What about the MIC [17] of the same compound?
Answer: The MIC was 25 µg/mL (≈ 40.6 µM).

Question: What about the “in vitro antibacterial activity, in words” value [18] of the same compound?
Answer: The value was “highest activity among the five Bu-2659 components; also recorded: comparable to that of neomycin; also recorded: substantially the same level of antibacterial activity as neomycin B”.

Question: What about the MIC (Mycobacterium phlei) of the same compound?
Answer: The MIC was 0.1 µg/mL (≈ 0.162 µM).

Question: And the MIC (Proteus morganii A9553)?
Answer: The MIC was 1.6 µg/mL (≈ 2.6 µM).

Question: What about the MIC (Proteus rettgeri A15167) of the same compound?
Answer: Its MIC is 0.8 µg/mL (≈ 1.3 µM).

Question: What about the MIC [19] of the same compound?
Answer: Its MIC is 25 µg/mL (≈ 40.6 µM).

Question: And the MIC (Escherichia coli A20107)?
Answer: The MIC was 25 µg/mL (≈ 40.6 µM).

Question: What about the “activity against Streptococcus and Mycobacterium, in words” value [20] of the same compound?
Answer: Its value is “equivalent activity”.

Question: What about the MIC [21] of the same compound?
Answer: Its MIC is 50 µg/mL (≈ 81.2 µM).
